Measurements from patent US3960949A, “1,2-Biguanides” (Schering Aktiengesellschaft, priority 1971, dated 1976).

Key:
[1] = in vivo; cited from earlier work
in vivo = conditions: mouse, po
Protocol: Five days after administration of the substance, the number of surviving animals was determined. […] The LD50 values were in each case based on the free base.

| SMILES | gastrointestinal compatibility [1] | LD50 at 120 h (in vivo) [mg/kg] |
| --- | --- | --- |
| CCCCNC(=N)NC(=N)N [1-Butylbiguanide, 1-butylbiguanide] | gastrointestinal incompatibility | – |
| Br.CC(C)N=C(NC(=N)N)NC(C)C [1,2-Diisopropylbiguanide, 1,2-Diisopropylbiguanide Hydrobromide] | – | > 2000 |
| CCCN=C(NC)NC(=N)N.Cl [1-Methyl-2-n-propylbiguanide, 1-Methyl-2-n-propylbiguanide Hydrochloride] | – | > 2000 |
| CCN=C(NC(=N)N)N(CC)CC.O=[N+]([O-])O [1,1,2-Triethylbiguanide, 1,1,2-Triethylbiguanide Nitrate] | – | > 2000 |
| [H]/N=C(/N)N/C(=N/[H])NCCc1ccccc1 [Phenformin, 1-β-phenethylbiguanide] | gastrointestinal incompatibility | – |
| CCCCN/C(=N\CC)NC(=N)N [1-Ethyl-2-n-butylbiguanide] | – | > 2000 |
| CN/C(=N\CCc1ccccc1)NC(=N)N [1-Methyl-2-β-phenethylbiguanide, 2-Methyl-1-β-phenethylbiguanide Nitrate] | – | 2830 |
